{"source": "patent US7767118B2", "about": "“Nanoparticles from supercritical fluid antisolvent process using particle growth and agglomeration retardants” (Ferro Corporation, priority 2003, dated 2010)", "key": {"[1]": {"experiment": "Scanning electron micrographs of the particles formed in the Example", "assay_type": "physicochemical", "conditions": "particles precipitated from acetone into SC-CO2 at 40° C., 80 bar with alpha D glucose penta acetate as growth retardant; FIGS. 4A and 4B; substantially uniform in size, circular in shape", "source_text": "FIGS. 4A and 4B are scanning electron micrographs of the acetaminophen particles formed in the Example at two magnifications. […] Some minimal particle agglomeration or bridging is apparent."}, "[2]": {"experiment": "Particle size distribution by laser light scattering", "assay_type": "physicochemical", "conditions": "FIG. 5, standard deviation 1.87 microns, particles precipitated in SC-CO2 at 40° C., 80 bar with alpha D glucose penta acetate", "experimental": "The mean diameter of the acetaminophen particles formed in the Example was measured using the conventional laser light scattering technique, which is known in the art. FIG. 5 is a graph showing the size distribution of particles. The mean volume diameter of the particles was 4.08 microns and the standard deviation was 1.87 microns."}}}
{"smiles": "CC(=O)Nc1ccc(O)cc1", "note": "[acetaminophen]", "values": [{"measurement": "particle size (scanning electron micrographs)", "setting": "[1]", "value": "1-2 microns"}, {"measurement": "mean volume diameter of the particles", "setting": "[2]", "value": 4.08, "unit": "microns"}]}
